Results from ChEMBL document CHEMBL3856228, “Design and Synthesis of Pyridone-Containing 3,4-Dihydroisoquinoline-1(2H)-ones as a Novel Class of Enhancer of Zeste Homolog 2 (EZH2) Inhibitors” (J Med Chem, 2016).
In brackets after ≈: the same amount, converted by molar mass.

Target: T1, Histone-lysine N-methyltransferase EZH2 (Homo sapiens, UniProt O75530+Q09028+Q15022+Q15910)
Assay: Inhibition of wild-type EZH2 (unknown origin) expressed in baculovirus infected SF9 cells co-expressing SUZ12/EED/RbAp48 complex using HeLa cells derived oligonucleosomes as substrate after 60 mins in presence of [3H] SAM by scintillation counting
Details: not given

T1 sequence (Q15910 whole entry, one chain of several): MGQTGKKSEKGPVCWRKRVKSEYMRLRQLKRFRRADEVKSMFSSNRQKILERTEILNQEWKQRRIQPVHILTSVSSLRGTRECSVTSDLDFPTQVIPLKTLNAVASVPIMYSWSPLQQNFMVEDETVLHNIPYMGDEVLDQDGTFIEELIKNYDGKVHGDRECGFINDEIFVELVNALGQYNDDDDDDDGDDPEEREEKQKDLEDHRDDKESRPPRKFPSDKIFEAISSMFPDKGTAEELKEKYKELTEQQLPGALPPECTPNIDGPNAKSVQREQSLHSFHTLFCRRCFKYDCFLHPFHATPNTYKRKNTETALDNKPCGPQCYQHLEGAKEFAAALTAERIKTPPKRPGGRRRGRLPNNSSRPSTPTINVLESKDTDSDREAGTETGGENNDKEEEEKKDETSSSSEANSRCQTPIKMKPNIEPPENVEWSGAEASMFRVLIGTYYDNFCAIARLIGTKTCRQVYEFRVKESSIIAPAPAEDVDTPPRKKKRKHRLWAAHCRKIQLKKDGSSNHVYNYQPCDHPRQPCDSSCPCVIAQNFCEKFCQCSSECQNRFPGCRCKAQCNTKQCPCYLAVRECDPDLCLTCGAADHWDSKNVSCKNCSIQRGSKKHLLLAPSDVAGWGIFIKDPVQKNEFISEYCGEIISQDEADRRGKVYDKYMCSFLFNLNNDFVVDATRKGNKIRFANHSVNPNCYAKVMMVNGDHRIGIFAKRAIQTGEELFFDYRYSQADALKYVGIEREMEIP

Row | SMILES | IC50 [nM] | Ki [nM]
1 | Cc1cc(C)c(CN2CCc3c(Cl)cc(-c4cn[nH]c4C)c(Cl)c3C2=O)c(=O)[nH]1 | 24 | 
2 | Cc1cc(C)c(CN2CCc3ccc(-c4c(C)noc4C)c(Cl)c3C2=O)c(=O)[nH]1 | 3.2 | 2
3 | Cc1cc(C)c(CN2CCc3c(Cl)cc(-c4c(C)nn(C)c4C)c(Cl)c3C2=O)c(=O)[nH]1 | 1500 | 
4 | Cc1cc(C)c(CN2CCc3c(F)cc(O[C@@H]4CCOC4)c(Cl)c3C2=O)c(=O)[nH]1 | 56 | 

More lines, main results first:

Row | IC50 [nM] | SMILES | Ki [nM]
5 | 1300 | Cc1cc(C)c(CNC(=O)c2cccc(OC(C)C)c2Cl)c(=O)[nH]1 | 
6 | > 150000 | COc1cccc(C(=O)NCc2c(C)cc(C)[nH]c2=O)c1 | 
7 | 1400 | Cc1cc(C)c(CNC(=O)c2cccc(OC(C)C)c2C)c(=O)[nH]1 | 
8 | > 200000 | Cc1cc(C)c(CNC(=O)c2ccccc2C)c(=O)[nH]1 | 
9 | 150 | COc1ccc2c(c1Cl)C(=O)N(Cc1c(C)cc(C)[nH]c1=O)CCC2 | 

Tested on: not listed separately
Assay: Lipophilicity, log D of the compound at pH 7.4
Details: buffer

Row | SMILES | logD
10 | CCOc1ccc2c(c1Cl)C(=O)N(Cc1c(C)cc(C)[nH]c1=O)CC2 | 2.2
11 | Cc1cc(C)c(CN2CCc3ccc(OC(C)C)c(Cl)c3C2=O)c(=O)[nH]1 | 2.7
12 | Cc1cc(C)c(CN2CCc3ccc(O[C@@H]4CCOC4)c(Cl)c3C2=O)c(=O)[nH]1 | 1.5
13 | Cc1cc(C)c(CN2CCc3c(Cl)cc(-c4cn[nH]c4C)c(Cl)c3C2=O)c(=O)[nH]1 | 3.1
14 | Cc1cc(C)c(CN2CCc3ccc(-c4c(C)noc4C)c(Cl)c3C2=O)c(=O)[nH]1 | 2.6
15 | Cc1cc(C)c(CN2CCc3c(Cl)cc(-c4c(C)nn(C)c4C)c(Cl)c3C2=O)c(=O)[nH]1 | 3.4
16 | Cc1cc(C)c(CN2CCc3c(F)cc(O[C@@H]4CCOC4)c(Cl)c3C2=O)c(=O)[nH]1 | 2.1

The next lines start with the values.

Row | logD | SMILES
17 | 1.8 | COc1ccc2c(c1Cl)C(=O)N(Cc1c(C)cc(C)[nH]c1=O)CC2
18 | 2 | Cc1cc(C)c(CNC(=O)c2cccc(OC(C)C)c2Cl)c(=O)[nH]1
19 | 1.7 | COc1cccc(C(=O)NCc2c(C)cc(C)[nH]c2=O)c1
20 | 2.1 | Cc1cc(C)c(CNC(=O)c2cccc(OC(C)C)c2C)c(=O)[nH]1
21 | 2.5 | Cc1cc(C)c(CN2CCc3ccc(OC(C)C)cc3C2=O)c(=O)[nH]1
22 | 1.7 | COc1ccc2c(c1Cl)C(=O)N(Cc1c(C)cc(C)[nH]c1=O)CCC2

Tested on: not listed separately
Assay: Intrinsic clearance in human liver microsomes at 1 uM after 45 mins in presence of NADPH by LC-MS/MS analysis
Format: ADME
Details: read-out: CLH

Row | SMILES | microsomal CLint at 1 µM [µL/min/mg]
23 | CCOc1ccc2c(c1Cl)C(=O)N(Cc1c(C)cc(C)[nH]c1=O)CC2 | 37
24 | Cc1cc(C)c(CN2CCc3ccc(OC(C)C)c(Cl)c3C2=O)c(=O)[nH]1 | 53 to 53.8
25 | Cc1cc(C)c(CN2CCc3ccc(O[C@@H]4CCOC4)c(Cl)c3C2=O)c(=O)[nH]1 | 21

Second part, the compound after the results:

Row | microsomal CLint at 1 µM [µL/min/mg] | SMILES
26 | 35 | COc1ccc2c(c1Cl)C(=O)N(Cc1c(C)cc(C)[nH]c1=O)CC2
27 | 19 | Cc1cc(C)c(CN2CCc3ccc(OC(C)C)cc3C2=O)c(=O)[nH]1
28 | 82 | COc1ccc2c(c1Cl)C(=O)N(Cc1c(C)cc(C)[nH]c1=O)CCC2

Target: T1, Histone-lysine N-methyltransferase EZH2
Assay: Binding affinity to EZH2 (unknown origin) expressed in baculovirus infected SF9 cells co-expressing SUZ12/EED/RbAp48 complex by ITC analysis
Details: not given

Row | Kd [nM] | SMILES
29 | 252 | Cc1cc(C)c(CNC(=O)c2cccc(OC(C)C)c2C)c(=O)[nH]1

Target: Histone-lysine N-methyltransferase EZH2 (Homo sapiens, UniProt O75530+Q09028+Q15022+Q15910, Y641N)
Sequence (Q15910 whole entry Y641N, one chain of several): as the sequence (Q15910 whole entry, one chain of several) above, with Y641N counted along it
Assay: Inhibition of EZH2 Y641N mutant (unknown origin) expressed in baculovirus infected SF9 cells co-expressing SUZ12/EED/RbAp48 complex using HeLa cells derived oligonucleosomes as substrate after 60 mins in presence of [3H] SAM by scintillation counting
Details: not given

Row | SMILES | IC50 [nM] | Ki [nM]
30 | Cc1cc(C)c(CN2CCc3c(Cl)cc(-c4cn[nH]c4C)c(Cl)c3C2=O)c(=O)[nH]1 | 110 | 
31 | Cc1cc(C)c(CN2CCc3ccc(-c4c(C)noc4C)c(Cl)c3C2=O)c(=O)[nH]1 | 8.8 | 6.3
32 | Cc1cc(C)c(CN2CCc3c(Cl)cc(-c4c(C)nn(C)c4C)c(Cl)c3C2=O)c(=O)[nH]1 | 6000 | 
33 | Cc1cc(C)c(CN2CCc3c(F)cc(O[C@@H]4CCOC4)c(Cl)c3C2=O)c(=O)[nH]1 | 260 | 

Target: Histone-lysine N-methyltransferase EZH2 (Homo sapiens, UniProt Q15910)
Sequence (Q15910 whole entry): as the sequence (Q15910 whole entry, one chain of several) above
Assay: Inhibition of EZH2 in human KARPAS422 cells assessed as reduction in H3K27Me3 levels after 72 hrs by ELISA
Format: cell-based
Details: not given

Row | SMILES | IC50 [nM]
34 | Cc1cc(C)c(CN2CCc3ccc(OC(C)C)c(Cl)c3C2=O)c(=O)[nH]1 | 1190
35 | Cc1cc(C)c(CN2CCc3ccc(O[C@@H]4CCOC4)c(Cl)c3C2=O)c(=O)[nH]1 | 796
36 | Cc1cc(C)c(CN2CCc3c(Cl)cc(-c4cn[nH]c4C)c(Cl)c3C2=O)c(=O)[nH]1 | 873
37 | Cc1cc(C)c(CN2CCc3ccc(-c4c(C)noc4C)c(Cl)c3C2=O)c(=O)[nH]1 | 105
38 | Cc1cc(C)c(CN2CCc3c(Cl)cc(-c4c(C)nn(C)c4C)c(Cl)c3C2=O)c(=O)[nH]1 | 15300
39 | Cc1cc(C)c(CN2CCc3c(F)cc(O[C@@H]4CCOC4)c(Cl)c3C2=O)c(=O)[nH]1 | 994

Tested on: not listed separately
Assay: Cytotoxicity against human KARPAS422 cells assessed as inhibition of cell proliferation after 72 hrs
Format: functional, cell-based
Details: KARPAS-422, 72 h

Row | SMILES | IC50 [nM]
40 | Cc1cc(C)c(CN2CCc3ccc(OC(C)C)c(Cl)c3C2=O)c(=O)[nH]1 | 1160
41 | Cc1cc(C)c(CN2CCc3ccc(O[C@@H]4CCOC4)c(Cl)c3C2=O)c(=O)[nH]1 | 512
42 | Cc1cc(C)c(CN2CCc3c(Cl)cc(-c4cn[nH]c4C)c(Cl)c3C2=O)c(=O)[nH]1 | 1340
43 | Cc1cc(C)c(CN2CCc3ccc(-c4c(C)noc4C)c(Cl)c3C2=O)c(=O)[nH]1 | 121
44 | Cc1cc(C)c(CN2CCc3c(Cl)cc(-c4c(C)nn(C)c4C)c(Cl)c3C2=O)c(=O)[nH]1 | 12800
45 | Cc1cc(C)c(CN2CCc3c(F)cc(O[C@@H]4CCOC4)c(Cl)c3C2=O)c(=O)[nH]1 | 1030

Tested on: not listed separately
Assay: Intrinsic clearance in mouse liver microsomes at 1 uM after 45 mins in presence of NADPH by LC-MS/MS analysis
Format: ADME
Details: read-out: CLH

Row | microsomal CLint at 1 µM [µL/min/mg] | SMILES
46 | 31 | Cc1cc(C)c(CN2CCc3ccc(O[C@@H]4CCOC4)c(Cl)c3C2=O)c(=O)[nH]1

Tested on: not listed separately
Assay: Permeability in RRCK cells
Format: ADME, cell-based, Canis lupus familiaris, MDCKII-LE
Details: dog, MDCK; read-out: permeability

Row | Papp [×10⁻⁶ cm/s] | SMILES
47 | 19.6 | Cc1cc(C)c(CN2CCc3ccc(OC(C)C)c(Cl)c3C2=O)c(=O)[nH]1
48 | 12.3 | Cc1cc(C)c(CN2CCc3ccc(O[C@@H]4CCOC4)c(Cl)c3C2=O)c(=O)[nH]1

Tested on: MDR1
Assay: Permeability across apical to basolateral side in MDCK cells expressing MDR1
Format: ADME, cell-based, Canis lupus familiaris
Details: dog, read-out: permeability

Row | Papp A→B [×10⁻⁶ cm/s] | SMILES
49 | 7.9 | Cc1cc(C)c(CN2CCc3ccc(OC(C)C)c(Cl)c3C2=O)c(=O)[nH]1
50 | 1.7 | Cc1cc(C)c(CN2CCc3ccc(O[C@@H]4CCOC4)c(Cl)c3C2=O)c(=O)[nH]1

Tested on: not listed separately
Assay: Kinetic solubility of the compound
Format: physicochemical
Details: read-out: Kinetic_solubility

Row | solubility kinetic [µM] | SMILES
51 | 19.6 (≈ 7.35 µg/mL) | Cc1cc(C)c(CN2CCc3ccc(OC(C)C)c(Cl)c3C2=O)c(=O)[nH]1
52 | 510 (≈ 205 µg/mL) | Cc1cc(C)c(CN2CCc3ccc(O[C@@H]4CCOC4)c(Cl)c3C2=O)c(=O)[nH]1
